According to patent US20260234157A1, “COMPOUND AND METHOD FOR TARGETED DEGRADATION OF ANDROGEN RECEPTOR” (Gan & Lee Pharmaceuticals Co., Ltd., priority 2023, published 2026):
Numbering of substitutions follows the chain as printed.

Columns and labels:
Assay type in all cases: cell-based
VCaP cells = assay: Inhibition of proliferation of VCaP cells (WST-8); details: Homo sapiens; VCaP cells, 168 hours, WST-8 absorbance at 450 nm; read-out: IC50 for inhibiting the proliferation of VCaP cells
Summary of the method: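 VCaP FGC cells, 15000 per well in DMEM with 10% FBS, were cultured at 37° C, 5% CO2. On day nine, WST-8 reagent was added to read proliferation.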

AR protein [1] = target: T1, AR protein (Homo sapiens, UniProt P10275, T878A); assay: Degradation of AR protein in LNCaP cells (Western blot); details: LNCaP cells, 8 hours, Western blot grayscale, GAPDH internal reference; for inhibition at 0.01 µM: compound 10 nM, read-out: Degradation rates of the AR protein in LNCaP cells, 10 nM (%); for inhibition at 0.1 µM: compound 100 nM, read-out: Degradation rates of the AR protein in LNCaP cells, 100 nM (%)
T1 construct: degradation activity of the compounds disclosed in the present disclosure on AR protein in LNCaP cells; host or cells: LNCaP FGC
T1 sequence (P10275 1-920 T878A): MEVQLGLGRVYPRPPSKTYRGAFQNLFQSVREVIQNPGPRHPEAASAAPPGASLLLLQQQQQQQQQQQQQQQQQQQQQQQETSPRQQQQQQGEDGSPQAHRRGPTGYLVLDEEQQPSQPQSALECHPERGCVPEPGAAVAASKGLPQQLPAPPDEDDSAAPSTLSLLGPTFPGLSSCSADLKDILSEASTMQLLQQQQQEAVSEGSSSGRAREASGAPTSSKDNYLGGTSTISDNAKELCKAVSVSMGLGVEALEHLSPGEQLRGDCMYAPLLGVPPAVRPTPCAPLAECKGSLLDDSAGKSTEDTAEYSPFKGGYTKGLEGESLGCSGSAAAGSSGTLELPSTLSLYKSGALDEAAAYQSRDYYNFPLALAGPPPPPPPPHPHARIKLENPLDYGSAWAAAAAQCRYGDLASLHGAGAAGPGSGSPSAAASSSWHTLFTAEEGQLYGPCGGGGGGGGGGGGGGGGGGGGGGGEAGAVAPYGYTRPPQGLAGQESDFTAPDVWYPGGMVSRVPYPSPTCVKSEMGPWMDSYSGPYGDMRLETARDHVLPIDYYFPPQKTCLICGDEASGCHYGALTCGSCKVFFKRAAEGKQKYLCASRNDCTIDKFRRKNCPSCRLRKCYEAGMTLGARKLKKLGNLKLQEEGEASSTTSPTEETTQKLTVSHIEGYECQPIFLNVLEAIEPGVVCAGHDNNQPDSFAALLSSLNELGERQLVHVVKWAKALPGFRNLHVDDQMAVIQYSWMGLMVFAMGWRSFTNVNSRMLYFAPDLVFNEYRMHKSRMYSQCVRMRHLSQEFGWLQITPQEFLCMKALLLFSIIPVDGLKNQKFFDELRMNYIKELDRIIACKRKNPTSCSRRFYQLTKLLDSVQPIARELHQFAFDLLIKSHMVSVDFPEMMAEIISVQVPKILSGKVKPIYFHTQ
Summary of the method: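 AR assessed by SDS-PAGE/Western blot with infrared imaging; band greyscale normalised to GAPDH gave percent degradation.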

LNCaP FGC cells = assay: Inhibition of proliferation of LNCaP cells (WST-8); details: Homo sapiens, LNCaP, 96 h, LNCaP FGC cells, 96 hours, WST-8 absorbance at 450 nm; read-out: IC50 for inhibiting the proliferation of LNCaP cells
Experimental: The cells were cultured in a cell culture incubator with 5% CO2 at 37° C. overnight. […] On the sixth day, 96 well plates were taken out, and 20 μL of WST-8 (Beytime, C0040) reagent was added to each well.

AR protein [2] = target: T2, AR protein (Homo sapiens, UniProt P10275); assay: Degradation of AR protein in VCaP cells (Western blot); details: 8 hours; for inhibition at 0.01 µM: compound at 10 nM, read-out: Degradation rate of the AR protein in VCaP cells, 10 nM (%); for inhibition at 0.1 µM: compound at 100 nM, read-out: Degradation rate of the AR protein in VCaP cells, 100 nM (%)
T2 construct: degradation activity of the compounds disclosed in the present disclosure on AR protein in VCaP cells; host or cells: VCaP
T2 sequence (P10275 1-920): T1 sequence (P10275 1-920 T878A) with A878T
Summary of the method: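 VCaP cells treated with compound alongside solvent controls for 8 h, then lysed in RIPA and protein quantified by BCA. AR detected by SDS-PAGE/Western blot with infrared imaging. Degradation rate calculated from band grayscale, with GAPDH as internal reference.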

SMILES	IC50 (VCaP cells)	inhibition at 0.01 µM (AR protein [1])	inhibition at 0.1 µM (AR protein [1])	IC50 (LNCaP FGC cells)	inhibition at 0.01 µM (AR protein [2])	inhibition at 0.1 µM (AR protein [2])
N#Cc1ccc(O[C@H]2CC[C@H](NC(=O)c3ccc(N4CC(N5CCC6(CC5)COc5c6ccc6c5C(=O)N(C5CCC(=O)NC5=O)C6=O)C4)nn3)CC2)cc1Cl (stereo partly drawn) [Compound 142]	15100 nM	29%	52%	> 90000 nM	26%	74%
COc1cc(O[C@H]2C(C)(C)[C@H](NC(=O)c3ccc(N4CCC(F)(CN5CCC6(CC5)COc5c6ccc6c5C(=O)N(C5CCC(=O)NC5=O)C6=O)CC4)cc3)C2(C)C)ccc1C#N (stereo partly drawn) [Compound 275]	20 nM	30%	54%	240 nM	7%	51%
N#Cc1ccc(O[C@H]2CC[C@H](NC(=O)c3ccc(N4CCC5(CC(N6CCC7(CC6)COc6cc8c(cc6C7)C(=O)N(C6CCC(=O)NC6=O)C8=O)C5)C4)nn3)CC2)cc1Cl (stereo partly drawn) [Compound 63]	240 nM	0%	65%	500 nM	67%	81%
COc1cc(O[C@H]2C(C)(C)[C@H](NC(=O)c3ccc(N4CCC(C#N)(CN5CCC6(CC5)COc5c6ccc6c5CN(C5CCC(=O)NC5=O)C6=O)CC4)cc3)C2(C)C)ccc1C#N (stereo partly drawn) [Compound 208]	3.5 nM	34%	38%	10 nM	17%	67%

Other lines, results leading:

IC50 (VCaP cells)	inhibition at 0.01 µM (AR protein [1])	inhibition at 0.1 µM (AR protein [1])	IC50 (LNCaP FGC cells)	inhibition at 0.01 µM (AR protein [2])	inhibition at 0.1 µM (AR protein [2])	SMILES
100 nM	-3%	10%	37900 nM	-47%	-5%	COc1cc(O[C@H]2C(C)(C)[C@H](NC(=O)c3ccc(N4CCC(F)(CN5CCC6(CC5)COc5cc7c(cc5C6)C(=O)N(C5CCC(=O)NC5=O)C7=O)CC4)cc3)C2(C)C)ccc1C#N (stereo partly drawn) [Compound 271]
> 90000 nM	-9%	-1%	71500 nM	-28%	7%	COC1(CN2CC3(CCc4ccc5c(c4O3)C(=O)N(C3CCC(=O)NC3=O)C5)C2)CCN(c2ccc(C(=O)N[C@H]3CC[C@H](Oc4ccc(C#N)c(Cl)c4)CC3)nn2)CC1 (stereo partly drawn) [Compound 138]
190 nM	37%	60%	15 nM	43%	72%	N#Cc1ccc(O[C@H]2CC[C@H](NC(=O)c3ccc(N4CCC(F)(CN5CCC6(CC5)COc5cc7c(cc5C6)C(=O)N(C5CCC(=O)NC5=O)C7=O)CC4)nn3)CC2)cc1Cl (stereo partly drawn) [Compound 67]
160 nM	44%	72%	800 nM	62%	73%	N#Cc1ccc(O[C@H]2CC[C@H](NC(=O)c3ccc(N4CCC5(CCC(N6CCC7(CC6)COc6cc8c(cc6C7)C(=O)N(C6CCC(=O)NC6=O)C8=O)CC5)CC4)nn3)CC2)cc1Cl (stereo partly drawn) [Compound 64]
